Reference: patent US9028845B2, “Chimeric immunomodulatory compounds and methods of using the same-IV” (Dynavax Technologies Corporation, priority 2001, dated 2015)

Columns and labels:
[1] = system: CD19+ B cells; assay: Human B cell proliferation assay (3H-thymidine incorporation); details: B cells, 2 μg/ml, Experiment B
[2] = system: human PBMCs; assay: Human PBMC cytokine response assay (IFN-γ and IFN-α in cell-free medium by ELISA), with or without cPLGA; assay type: cell-based;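 as to IFN-α (pg/ml) mean: 20 µg/mL compound for 24 hours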;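 as to IFN-γ (pg/ml) mean: 20 µg/mL compound for 24 hours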
[3] = system: mouse splenocytes; assay: Mouse splenocyte cytokine secretion (IL-6, IL-12, IFN by ELISA); assay type: cell-based, BALB/c mice; parameters: IFN: unit not given beside the values; details: 24 h
Procedure: Polynucleotides and chimeric compounds were tested for immunostimulatory activity on mouse splenocytes. Immunostimulation was assessed by measurement of cytokine secretion into the culture media. Cytokine levels in the culture supernatant were determined by enzyme-linked immunosorbent assay (ELISA) tests.
Cells were isolated and prepared using standard techniques. Spleens of 8 to 20 week-old BALB/c mice were harvested and the splenocytes isolated using standard teasing and treatment with ACK lysing buffer from BioWhittaker, Inc. Four spleens were pooled in this experiment. Isolated cells were washed in RPMI 1640 media supplemented with 2% heat-inactivated fetal calf serum (FCS), 50 μM 2-mercaptoethanol, 1% penicillin-streptomycin, and 2 mM L-glutamine and resuspended at approximately […] in 10% FCS/RPMI (RPMI 1640 media with 10% heat-inactivated FCS, 50 μM 2-mercaptoethanol, 1% penicillin-streptomycin, and 2 mM L-glutamine).
Cell cultures were set up in triplicate with approximately 7×10^5 cells/well in a 96-well flat microtiter plate in 100 μl 10% FCS/RPMI with the cells allowed to rest for at lest 1 hour after plating. The indicated test compounds were incubated (at the indicated concentrations) for 24 hours at 37° C. Cell supernatants were harvested and frozen at −80° C. Cytokine production by the cells was determined by ELISAs, as shown in 19.

[4] = Donor 5, 20 μg/ml (mixtures: 20 μg/ml total), 24 h
[5] = Donor 6, 20 μg/ml (mixtures: 20 μg/ml total), 24 h
[6] = Table 25, mean of donors 28250-28253
[7] = donor 28066, 20 ug/ml, 24 h, + PLGA = premixed with 100 μg/ml cPLGA
[8] = donor 28067, 20 ug/ml, 24 h, + PLGA = premixed with 100 μg/ml cPLGA
[9] = donor 28068, 20 ug/ml, 24 h, + PLGA = premixed with 100 μg/ml cPLGA
[10] = mean of Donors 1-2, 20 μg/ml, 24 h
[11] = mean of Donors 5-6, 20 μg/ml (mixtures: 20 μg/ml total), 24 h
[12] = mean of Donors 7-8, 20 μg/ml, 24 h
[13] = mean of donors 28065-28068, 20 ug/ml, 24 h, + PLGA = premixed with 100 μg/ml cPLGA

5′-TCGTCG-3′-HEG-5′-ACGTTCG-3′-HEG-5′-AGATGAT-3′ [Compound C-10]
cpm1 ([1]; donor 121): 15142 cpm | cpm2 ([1]; donor 121): 14136 cpm | cpm3 ([1]; donor 121): 16158 cpm | mean cpm ([1]; donor 121 mean): 15145 cpm | cpm1 ([1]; donor 194): 7480 cpm | cpm2 ([1]; donor 194): 5458 cpm | cpm3 ([1]; donor 194): 5943 cpm | mean cpm ([1]; donor 194 mean): 6294 cpm | mean of both ([1]; mean of donors 121 and 194): 10720 cpm | IFN-α (pg/ml) Donor 1 ([2]; Donor 1, 20 μg/ml, 24 h): 1662 pg/mL | IFN-γ (pg/ml) Donor 1 ([2]; Donor 1, 20 μg/ml, 24 h): 1595 pg/mL | IFN-α (pg/ml) Donor 2 ([2]; Donor 2, 20 μg/ml, 24 h): 50 pg/mL | IFN-γ (pg/ml) Donor 2 ([2]; Donor 2, 20 μg/ml, 24 h): 952 pg/mL | IFN-α (pg/ml) Donor 5 [2, 4]: 91 pg/mL | IFN-γ (pg/ml) Donor 5 [2, 4]: 102 pg/mL | IFN-α (pg/ml) Donor 6 [2, 5]: 1700 pg/mL | IFN-γ (pg/ml) Donor 6 [2, 5]: 806 pg/mL | IFN-α (pg/ml) Donor 7 ([2]; Donor 7, 20 μg/ml, 24 h): 46 pg/mL | IFN-γ (pg/ml) Donor 7 ([2]; Donor 7, 20 μg/ml, 24 h): 23 pg/mL | IFN-α (pg/ml) Donor 8 ([2]; Donor 8, 20 μg/ml, 24 h): 539 pg/mL | IFN-γ (pg/ml) Donor 8 ([2]; Donor 8, 20 μg/ml, 24 h): 198 pg/mL | IFN-α ([2]; Table 9, donor 28089): 17 pg/mL | IFN-γ ([2]; Table 9, donor 28089): 35 pg/mL | IFN-α ([2]; Table 9, donor 28090): 61 pg/mL | IFN-γ ([2]; Table 9, donor 28090): 44 pg/mL | IFN-α ([2]; Table 9, donor 28098): 187 pg/mL | IFN-γ ([2]; Table 9, donor 28098): 174 pg/mL | IFN-α ([2]; Table 9, donor 28099): 304 pg/mL | IFN-γ ([2]; Table 9, donor 28099): 140 pg/mL | IFN-α mean ([2]; Table 9, mean of donors): 142 pg/mL | IFN-γ mean ([2]; Table 9, mean of donors): 98 pg/mL | IFN-a ([2]; Table 25, donor 28250): 16 pg/mL | IFN-g ([2]; Table 25, donor 28250, polynucleotides/spacers at amounts equivalent to the CIC, spacers alone 9 uM): 337 pg/mL | IFN-a ([2]; Table 25, donor 28251): 23 pg/mL | IFN-g ([2]; Table 25, donor 28251): 163 pg/mL | IFN-a ([2]; Table 25, donor 28252): 25 pg/mL | IFN-g ([2]; Table 25, donor 28252): 776 pg/mL | IFN-a ([2]; Table 25, donor 28253): 124 pg/mL | IFN-g ([2]; Table 25, donor 28253): 898 pg/mL | IFN-a mean [2, 6]: 47 pg/mL | IFN-g mean [2, 6]: 544 pg/mL | IFN-γ (pg/ml) 28065 ([2]; donor 28065 (high background), 20 ug/ml, 24 h, + PLGA = premixed with 100 μg/ml cPLGA, 1000 = outside assay limits): 1000 pg/mL | IFN-α (pg/ml) 28065 ([2]; donor 28065, 20 ug/ml, 24 h, + PLGA = premixed with 100 μg/ml cPLGA): 116 pg/mL | IFN-α (pg/ml) 28066 [2, 7]: 6 pg/mL | IFN-γ (pg/ml) 28066 [2, 7]: 9 pg/mL | IFN-α (pg/ml) 28067 [2, 8]: 107 pg/mL | IFN-γ (pg/ml) 28067 [2, 8]: 51 pg/mL | IFN-α (pg/ml) 28068 [2, 9]: 340 pg/mL | IFN-γ (pg/ml) 28068 [2, 9]: 559 pg/mL | IFN-α (pg/ml) mean [2, 10]: 856 pg/mL | IFN-γ (pg/ml) mean [2, 10]: 1273 pg/mL | IFN-α (pg/ml) mean [2, 11]: 896 pg/mL | IFN-γ (pg/ml) mean [2, 11]: 454 pg/mL | IFN-α (pg/ml) mean [2, 12]: 293 pg/mL | IFN-γ (pg/ml) mean [2, 12]: 111 pg/mL | IFN-α (pg/ml) mean [2, 13]: 142 pg/mL | IFN-γ (pg/ml) mean [2, 13]: 405 pg/mL | immunomodulatory activity (IFN-γ / IFN-α secretion), in words ([2]; used alone (no cPLGA)): did have immunomodulatory activity | IFN ([3]; dose 0.1 μg/ml): 9 | IL-6 ([3]; dose 0.1 μg/ml): 9 | IL-12 ([3]; dose 0.1 μg/ml): 122 | IFN ([3]; dose 1.0 μg/ml): 104 | IL-6 ([3]; dose 1.0 μg/ml): 1761 | IL-12 ([3]; dose 1.0 μg/ml): 1738 | IFN ([3]; dose 5.0 μg/ml): 199 | IL-6 ([3]; dose 5.0 μg/ml): 3342 | IL-12 ([3]; dose 5.0 μg/ml): 2329
